Target: RNA-binding domain (RBD) of the SARS-CoV-2 nucleocapsid (N) protein, RBD (44–180) (Severe acute respiratory syndrome coronavirus 2, UniProt P0DTC9)
Assay: biochemical

Nc1ncnc2c1ncn2[C@@H]1O[C@H](COP(=O)(O)OP(=O)(O)OP(=O)(O)O)[C@@H](O)[C@H]1O [ATP]
Kd: 3.3 ± 0.4 mM
